Data on two compounds can be found in patent publication US7052850B2, “Isolated human EDG-4 receptor” (priority 1997, dated 2006).

What all share (type): cell-based
Test [1] deals with pcDNA3-transfected 293-EBNA cells. Briefly: AP-1 reporter in 293-EBNA cells, empty vector pcDNA3. Conditions: 10 μM LPA. An excerpt: (§1) LPA, like S1P, is abundant in serum, but not plasma. Moreover, LPA is produced as a consequence of phospholipase A2 with or without the contribution of phospholipase D (depending on the phospholipid substrate). […] To date we have identified three subtypes of edg receptors that respond to LPA as an agonist. These are EDG-2, […] (referred to also as LPA1, LPA2 and LPA3, respectively (Chun, J, Contos, JJA and Munroe, DG. 1998. A growing family of receptor genes for lysophophatidid acid (LPA) and other lyso-phospholipids. Cell Biochem Biophys (in press)). The EDG-5 receptor is set out in co-pending U.S. application Ser. No. 08/997,803 to MUNROE et al., incorporated herein to reference and the amino acid sequence and cDNA sequence for the EDG-6 receptor is set out in FIGS. 21 and 22, respectively. To determine whether these receptors might mediate inflammatory responses, each was cotransfected separately with SRE, NF-κB or AP-1 reporter genes. […] This transcription factor, like NF-κB has been implicated in inflammatory and neoplastic signal transduction, though the gene targets of its action are largely distinct from those of NF-κB (Adcock I M. 1997. Transcription factors as activators of gene transcription; AP-1 and NF-κB. Monaldi Arch Chest Dis 52:178–186. Review). […]

In test [2] the target is T1, EDG-2 (Homo sapiens, UniProt Q92633).
T1 construct: expressed in transfected cells; host or cells: 293-EBNA
T1 sequence (Q92633 whole entry): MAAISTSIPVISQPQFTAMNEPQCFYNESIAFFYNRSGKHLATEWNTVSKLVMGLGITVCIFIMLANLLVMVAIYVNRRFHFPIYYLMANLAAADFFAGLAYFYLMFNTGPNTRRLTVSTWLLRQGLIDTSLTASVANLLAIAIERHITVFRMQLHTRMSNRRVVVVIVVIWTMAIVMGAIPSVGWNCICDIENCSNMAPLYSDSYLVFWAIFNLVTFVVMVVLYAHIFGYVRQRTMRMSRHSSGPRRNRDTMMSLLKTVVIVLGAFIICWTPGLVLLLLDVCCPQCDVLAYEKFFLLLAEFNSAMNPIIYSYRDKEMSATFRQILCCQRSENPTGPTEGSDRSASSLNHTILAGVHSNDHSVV
In words: NF-κB reporter in 293-EBNA cells, EDG-2. Conditions: 10 μM LPA overnight.
Excerpt: as §1

The target of test [3] is T2, EDG-6 (Homo sapiens, UniProt Q9HBW0).
T2 construct: expressed in transfected cells; host or cells: 293-EBNA
T2 sequence (Q9HBW0 with tags, fused parts or gaps): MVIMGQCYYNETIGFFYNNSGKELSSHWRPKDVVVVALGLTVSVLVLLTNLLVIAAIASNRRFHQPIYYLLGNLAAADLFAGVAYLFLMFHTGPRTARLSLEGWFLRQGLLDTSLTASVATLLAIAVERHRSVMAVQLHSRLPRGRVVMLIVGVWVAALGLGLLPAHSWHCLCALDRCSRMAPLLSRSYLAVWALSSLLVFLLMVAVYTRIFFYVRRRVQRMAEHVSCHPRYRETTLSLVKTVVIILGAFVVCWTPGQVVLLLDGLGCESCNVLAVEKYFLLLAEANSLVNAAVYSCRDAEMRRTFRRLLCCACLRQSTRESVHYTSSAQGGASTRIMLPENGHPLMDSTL
In words: NF-κB reporter in 293-EBNA cells, EDG-6. Particulars: 10 μM LPA overnight.
Excerpt: as §1

In test [4] the target is T2, EDG-6. Briefly: SRE reporter in 293-EBNA cells, EDG-6. Conditions: 10 μM LPA.
Excerpt: as §1

Test [5] deals with T3, human EDG-5 (Homo sapiens, UniProt Q9UBY5).
T3 construct: expressed in transfected cells; host or cells: 293-EBNA
T3 sequence (Q9UBY5 1-353): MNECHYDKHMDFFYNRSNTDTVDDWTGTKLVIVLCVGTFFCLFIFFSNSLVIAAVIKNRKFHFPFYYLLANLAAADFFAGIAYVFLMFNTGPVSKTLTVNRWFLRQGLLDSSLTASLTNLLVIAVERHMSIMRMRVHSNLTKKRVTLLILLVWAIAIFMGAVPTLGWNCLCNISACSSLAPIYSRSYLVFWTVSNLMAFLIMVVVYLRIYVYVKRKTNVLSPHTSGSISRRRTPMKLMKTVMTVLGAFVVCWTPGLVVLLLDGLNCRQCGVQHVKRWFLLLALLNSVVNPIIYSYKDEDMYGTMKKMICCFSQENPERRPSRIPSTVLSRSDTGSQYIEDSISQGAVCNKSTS
In words: NF-κB luciferase reporter in 293-EBNA cells, human EDG-5. Particulars: 10 μM LPA overnight. As to the method: The above protocol for assay 1 was followed except for the following changes: • 1) 100 mm plates of 293-EBNA with a confluency of ˜80% were used for transfection. • 2) 3 μg NFκB-tk-p4Luc reporter DNA and 3 μg pC3-hedg1, pC3-hedg 3, pC3-redg4, pC3-hedg5 or pcDNA3 DNA was diluted in 240 μl OPTI-MEM (Gibco; Cat. 31985-062) • 3) 22 μl lipofectamine (Gibco; Cat. 1 8324-020) was diluted in 240 μl OPTI-MEM. • 4) The 293-EBNA plates were washed once with PBS and 7 ml OPTI-MEM was added to each plate. • 5) DNA/lipofectamine mixture was added to each plate of 293-EBNA cells. The plates were left for 4 hrs at 37° C. in a 5% CO2 incubator. Day 2: • 1) 0.01×10^6 cells were plated per well of 96-well Blackview plate coated with polyD-lysine. No cells were plated in the outside wells of the 96-well plate. Day 3: The following treatments were used for all transections:
293-EBNA cells were grown, lipofected in monolayer cultures, and pretreated as described above for Example 11, assay #1, except that NF-κB and AP-1 reporter-transfected cells were preteated for 6 hr in medium containing 0.5% […], then treated overnight in the same medium with or without 10 μM LPA.
For orientation: In a reporter assay the amount or activity of a reporter protein is the signal.

Test [6] concerns pcDNA3-transfected cells. In words: Calcium microfluorimetry (fura-2), pcDNA3-transfected 293-EBNA cells. Conditions: 2 μM S1P. As to the method: Transfections were carried out with EDG receptors in 293-EBNA cells as described above, except that no reporter gene vector was included in the DNA mix. Two days after transfection, cells were harvested by trypsinization and plated at a density of 200,000 cells onto poly-D-lysine-coated coverslips in 100 μl of medium containing 0.5% FBS. After briefly allowing cell attachment to take place, 2 ml of medium without FBS was added and the cells were incubated overnight. The next day, cells were loaded with 5 μM fura-2 AM ester (Molecular Probes) for 60 min at RT, then washed and used for calcium microfluorimetry. […] Treatments were applied using a gravity-fed perfusion apparatus. Fluorescence emission was continuously monitored and recorded with PTI 2.060a software and analyzed with Sigma Plot software. Intracellular calcium concentrations were calculated by interpolation on a ratiometric fluorescence curve generated from fura-2 fluorescence in a calcium dilution series.

The target in test [7] is EDG-1 (Homo sapiens, UniProt P21453). Briefly: NF-κB luciferase reporter in 293-EBNA cells, EDG-1. Conditions: Assay 3; 3 μM; 6 hours.
EDG-1, sequence (P21453 whole entry): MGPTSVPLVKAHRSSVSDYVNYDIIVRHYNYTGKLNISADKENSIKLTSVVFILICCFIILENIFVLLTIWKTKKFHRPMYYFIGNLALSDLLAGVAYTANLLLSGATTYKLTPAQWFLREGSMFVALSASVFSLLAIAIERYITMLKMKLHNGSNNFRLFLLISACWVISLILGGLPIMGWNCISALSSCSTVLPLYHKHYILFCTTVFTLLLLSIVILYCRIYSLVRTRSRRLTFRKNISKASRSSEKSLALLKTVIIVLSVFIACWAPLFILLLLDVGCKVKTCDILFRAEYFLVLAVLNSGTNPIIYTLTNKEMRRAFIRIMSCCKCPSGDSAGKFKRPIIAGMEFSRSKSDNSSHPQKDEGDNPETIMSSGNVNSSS
Experimental: The protocol described in Example 11 for Assay 1 was allowed except for the following changes: • 1) 100 mm plates of 293-EBNA ith a confluency of ˜80% were used for transfection, • 2) SRE Cotransfection: 0.5 μg of 2XSREtk-p4Luc-zeo reporter DNA and 3.5 μg pcDNA3, EDG-1, EDG-3 pC3-hE3P2, different from the clone used in Assay 2 of Example 11) or the newly cloned human EDG-4 (pC3-hedg4#36); NF-κB Cotransfection: 2 μg 6XNFκBtk-p4LUc-zeo reporter DNA and 2.0 μg pcDNA3, EDG-1, EDG-3 (pC3-hE3HP2), or EDG-4 (pC3-hedg4#36). Expression plasmid and reporter plasmid DNA samples were combined and diluted in 750 μl of DMEM/F12 (serum free media) and 20 μl Plus Reagent (Lipofectamine Plus Kit, Life Technologies Cat. 109640-13), and incubated at room temperature for 15 min. • 3) 30 μl Lipofectamine Reagent (Lipofectamine Plus Kit) was diluted in 750 μl DMEM/F12. The diluted Lipofectamine was then combined with the DNA/Plus mixture and incubated at room temperature for 15 min. • 4) The 293-EBNA plates were washed once with PBS and 5 ml DMEM/F12 was added to each plate. • 5) DNA/Plus/Lipofectamine mixture was added to each plate of 293-EBNA cells. […]
Test [8] deals with rat EDG-4 (Rattus norvegicus, UniProt P47752). In words: IL-8 response in COS-1 cells transfected with rat EDG-4 expression plasmid. Also noted: transient transfection with a eukaryotic expression vector expressing full-length rat edg-4 cDNA; expressed in transfected cells. Particulars: COS-1, EDG-4 expression plasmid; 5 μm S1P overnight.
rat EDG-4, sequence (P47752 whole entry): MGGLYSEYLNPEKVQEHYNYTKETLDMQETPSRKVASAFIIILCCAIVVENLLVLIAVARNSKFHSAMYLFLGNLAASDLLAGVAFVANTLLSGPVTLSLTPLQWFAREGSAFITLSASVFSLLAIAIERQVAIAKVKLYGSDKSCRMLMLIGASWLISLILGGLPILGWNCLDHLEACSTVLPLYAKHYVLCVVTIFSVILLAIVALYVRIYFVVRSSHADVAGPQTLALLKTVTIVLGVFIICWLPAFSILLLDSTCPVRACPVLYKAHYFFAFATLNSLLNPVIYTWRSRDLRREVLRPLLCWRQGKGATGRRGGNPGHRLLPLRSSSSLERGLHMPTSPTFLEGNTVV

In the case of lysophosphatidic acid [LPA], in test [1], the “endogenous AP-1 reporter response vs untreated control cells” value is reported as “about 1.5 fold”. For the same compound, the “activation of the NF-κB reporter” value in test [2], in test [3] and in test [5] was 3–4 fold throughout. Moreover, the “induction of the SRE reporter” value in test [4] is “strongly induced”.

Consider `CCCCCCCCCCCCC/C=C/[C@@H](O)[C@@H](N)COP(=O)(O)O` [S1P, sphingosine 1-phosphate], for which the “change in intracellular calcium” value in test [6] was “approximately 60 nM”. Further, the “luciferase activity (NF-κB reporter)” value in test [7] was “no increase in luciferase activity”. Besides, the “increase in IL-8 release compared to untreated cells” value in test [8] is on record as 2 fold.
